In one data set the test system is A172 glioma cells. The experiment in a line: Intracellular GSH, GSH-Glo assay, A172 cells. Particulars: Homo sapiens, 48 h, normalized to untreated control; for activity at 250 µM: A 172, 250 μM compound, read-out: Intracellular GSH level A172 250 μM; for activity at 500 µM: A 172, 500 μM compound, read-out: Intracellular GSH level A172 500 μM. Format: cell-based. How it is done: (§1) The cancer cell lines A172, A375, U87 and MCF7 were purchased from American Type Culture Collection (ATCC; Manassas, Va., USA). Cells were cultured in Dulbecco's Modified Eagle's Medium (DMEM) supplemented with 10% fetal bovine serum, 2% v/v L-glutamine, 3.2% v/v non-essential amino acids, antibiotics 2% v/v (penicillin-streptomycin), and 0.02% v/v Plasmocin at 37° C. and 5% CO2.
(§2) xCT expression of cancer cell lines was evaluated by western blotting from protein samples of cell lysates as described in Sleire et al., Oncogene 34: 5951-5959, 2015. Protein concentrations were determined by BCA assay (Thermo Fisher Scientific, USA) followed by SDS PAGE and immunoblotting using rabbit anti-xCT (Thermo Fisher Scientific) and rabbit anti-GAPDH (Abcam, Cambridge, UK) as a loading control. The compounds were dissolved in dimethylsulfoxide (DMSO) (Sigma Aldrich, Germany) and stock concentrations of 100 mM were stored at −20° C. in aliquots. Final concentrations were made in growth medium before adding to the cell monolayers.
(§3) The compounds were evaluated based on the measurement of intracellular Glutathione (GSH) which was performed by the GSH-Glo assay (Promega, Madison, WI, USA, cat #V6912) according to the manufacturer's recommended procedures. 5000 cells per well were seeded in a flat bottomed 96-well plate. After attachment to the well surface, cells were exposed to 250 μM and 500 μM of each compound for 48 h. After that, GSH-Glo reagent was added followed by short incubation and addition of luciferin detection reagent. Bioluminescence was measured using a luminometer (Victor 3 1420 multi-label counter, Perkins Elmer, Waltham, MA, USA). IC50 doses for the compounds SAS, DC10 and DC14 were determined in A172 glioma cells, using the GraphPad Prism v6 software (GraphPad Software, Inc. CA, USA). All measurements were normalized to the untreated control and were performed three times.

Data set [1] can be described thus: Assessment of toxicity associated with DC10 in mice. It is filed as in vivo. Particulars: 16 mg by oral gavage, NOD/Scid mice, 24 or 48 hours. From the text: (§4) Experiments were approved by the Norwegian Animal Research Authority (Oslo, Norway) in accordance with the Guide for the Care and Use of Laboratory Animals (Institute for Laboratory Animal Research, National Research Council. Washington, D.C.: National Academy Press, 1996). NOD/Scid mice were kept at the animal facility at Department of Biomedicine at the University of Bergen. The animals were provided a standard pellet diet and tap water ad libitum. They were kept in a pathogen free environment at a constant temperature and humidity, and standard 12/12 h light and dark cycle.
DC10 was dissolved in distilled water and administered as a slurry by oral gavage. 16 mg was administered in a volume of 0.2 ml to each animal. […] Blood was sampled through heart puncture with a 3 ml syringe and 0.75 to 1 ml blood was collected. 250 μl was transferred to EDTA tubes that were tilted 15 times to avoid coagulation. The remaining volumes were transferred to 1.5 ml cryotubes and left to coagulate for 3 minutes before centrifugation at 2200 RCF for 10 minutes. This was followed by transfer of the supernatant to new cryotubes that were kept at −20° C., then thawed immediately prior to analysis at the clinical laboratory at Haukeland University Hospital. Blood collected on EDTA tubes underwent hematological analyses, whereas serum underwent biochemical analyses. Organs were also harvested, fixed on 4% formalin embedded in paraffin, sectioned and stained with hematoxylin and esosin.

For the next data set, the system named is U87. The experiment in a line: Intracellular GSH, GSH-Glo assay, U87 cells. Format: cell-based. To be noted: Homo sapiens, U-87 MG, 48 h, normalized to untreated control; for activity at 250 µM: 250 μM compound, read-out: Intracellular GSH level U87 250 μM; for activity at 500 µM: 500 μM compound, read-out: Intracellular GSH level U87 500 μM. How it is done:
as §1, §2, §3

For the next data set, the system named is MCF7. The experiment in a line: Intracellular GSH, GSH-Glo assay, MCF7 cells. It is filed as cell-based. To be noted: Homo sapiens, 48 h, normalized to untreated control; for activity at 250 µM: 250 μM compound, read-out: Intracellular GSH level MCF7 250 μM; for activity at 500 µM: 500 μM compound, read-out: Intracellular GSH level MCF7 500 μM. How it is done:
as §1, §2, §3

The subject of a further data set is A375 melanoma cells. Description: Validation of DC10 as a radiosensitizer in vivo, subcutaneous A375 tumours. The arrangement: species or system NOD/Scid mice. Particulars: DC10+RT: 8 mg DC10 on day 14, 4 Gy radiation at day 15, compared with control, DC10 alone.
Excerpt: as §4
In this study 20 NOD/Scid mice were grafted with A375 melanoma cells. The A375 cell line was maintained in incubators at 37° C. and 5% CO2 prior to use in the animal experiment. A375 was cultured in DMEM (Sigma-Aldrich, St-Louis, MO, USA) with the supplement of 10% fetal bovine serum (FBS), 3.2% non-essential amino acids, 100 units/mL Penicillin/Streptomycin, […] L-glutamine (all Lonza, Cologne, Germany). Cells were passaged in vitro in medium sized 75 cm^2 culture flasks. […]
For induction of subcutaneous tumours, 5×10^5 A375 cells were injected in the right flank of 20 NOD/SCID mice, and the animals were randomly assigned to 4 groups with […]. […] Tumour growth data for the treatment groups and different time points were analysed with repeated measures for 2-way Anova analysis.

Another data set relates to A375. The experiment in a line: Intracellular GSH, GSH-Glo assay, A375 cells. It is filed as cell-based. To be noted: Homo sapiens, 48 h, normalized to untreated control; for activity at 250 µM: A-375, 250 μM compound, read-out: Intracellular GSH level A375 250 μM; for activity at 500 µM: A-375, 500 μM compound, read-out: Intracellular GSH level A375 500 μM. How it is done: as §1, §2, §3

The target in a further data set is T1, xCT antiport (Homo sapiens, UniProt Q9UPY5).
T1 sequence (Q9UPY5 1-501): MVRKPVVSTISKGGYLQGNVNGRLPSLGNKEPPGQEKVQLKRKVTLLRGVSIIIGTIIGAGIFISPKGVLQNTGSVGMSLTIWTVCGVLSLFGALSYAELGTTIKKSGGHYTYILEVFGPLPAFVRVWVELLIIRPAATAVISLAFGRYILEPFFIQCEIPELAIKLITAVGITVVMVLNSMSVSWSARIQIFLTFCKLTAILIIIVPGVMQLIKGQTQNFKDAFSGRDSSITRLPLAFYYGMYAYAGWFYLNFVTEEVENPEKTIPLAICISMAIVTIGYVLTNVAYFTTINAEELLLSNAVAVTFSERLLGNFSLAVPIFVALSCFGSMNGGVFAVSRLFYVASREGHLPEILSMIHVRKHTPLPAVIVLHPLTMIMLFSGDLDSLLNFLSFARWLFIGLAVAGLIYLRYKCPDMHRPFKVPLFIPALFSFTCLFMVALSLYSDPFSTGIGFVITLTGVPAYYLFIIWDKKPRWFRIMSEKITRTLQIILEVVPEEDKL
T1 sequence (P08195 1-529 partner): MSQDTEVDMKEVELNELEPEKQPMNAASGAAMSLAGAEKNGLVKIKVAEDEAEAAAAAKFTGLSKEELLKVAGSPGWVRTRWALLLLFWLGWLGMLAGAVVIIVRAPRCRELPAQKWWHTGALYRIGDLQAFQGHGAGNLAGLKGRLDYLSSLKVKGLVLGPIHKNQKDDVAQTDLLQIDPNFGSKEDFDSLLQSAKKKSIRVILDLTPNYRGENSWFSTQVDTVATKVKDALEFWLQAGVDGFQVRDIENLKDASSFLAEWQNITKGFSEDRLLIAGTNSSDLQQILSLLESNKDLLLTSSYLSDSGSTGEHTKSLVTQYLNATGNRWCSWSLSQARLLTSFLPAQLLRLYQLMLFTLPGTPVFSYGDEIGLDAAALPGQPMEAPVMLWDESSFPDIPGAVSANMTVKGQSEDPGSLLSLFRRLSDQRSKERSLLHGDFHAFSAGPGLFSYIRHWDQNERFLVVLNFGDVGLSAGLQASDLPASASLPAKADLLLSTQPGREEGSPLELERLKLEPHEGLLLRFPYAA
To be noted: reported in the literature; cited from earlier work.

The values that follow come from patent US12629382B2, “Therapy” (Vestlandets Innovasjonsselskap AS, priority 2019, dated 2026).

Take `O=C(O)c1cc(/C=C/c2ccc(-c3ccccc3)cc2)ccc1O` [DC10, (E)-5-(2-([1,1′-biphenyl]-4-yl)vinyl)-2-hydroxybenzoic acid]: in the data set on A172 glioma cells, the activity at 250 µM is 10.4% and the activity at 500 µM is 2.3%. In data set [1], the Clinical inspection entry was “did not reveal any signs, symptoms or deficits”; the “Hematological analysis: hemoglobin, thrombocytes and leukocytes” value is “normal”; the “Histopathological examination of organs” value is “did not show evidence of inflammation or other signs of tissue injury”; the “Macroscopic inspection of brain, lungs, heart, intestines, liver, kidneys and spleen” value is reported as “appeared normal”. In data set [1] (serum), the “Biochemical blood analysis: S-Kreatinin, γ-GT, S-ASAT, S-ALAT, Amylase, S-Glukose” value was “no significant elevation in S-Kreatinin (Kidney function), or shift in γ-GT, S-ASAT, S-ALAT, Amylase and S-Glukose”. In addition, in the data set with U87, the activity at 250 µM was 76.1% and the activity at 500 µM was determined as 7.3%. Further, in the data set with MCF7, the activity at 250 µM is 28% and the activity at 500 µM stood at 10.9%. Also, the “Tumour volume versus the other groups” value with A375 melanoma cells is listed as “significantly smaller”. Further, in the data set on A375, the activity at 250 µM was found to be 27.6% and the activity at 500 µM worked out at 3.1%.

As to `Nc1ccc(S(=O)(=O)Nc2ccccn2)cc1` [sulfapyridine, 4-amino-N-(pyridin-2-yl)benzenesulfonamide], the xCT activity entry at xCT antiport is reported as “without xCT activity”.

As to `O=C(O)c1cc(/N=N/c2ccc(S(=O)(=O)Nc3ccccn3)cc2)ccc1O` [SAS, Sulfasalazine, reference compound], the activity at 250 µM in the data set with A172 glioma cells is 15%; in the data set on U87, 14%; in the data set with MCF7, 26.2%; in the data set with A375, 13.5%. The activity at 500 µM with A172 glioma cells worked out at 2.1%; with U87 it was 8%; with MCF7, 7.6%; with A375, 5.3%. The xCT activity entry at xCT antiport is reported as “blocking the cell membrane xCT antiport”.

With `Nc1ccc(O)c(C(=O)O)c1` [mesalazine, 5-amino-2-hydroxybenzoic acid], at xCT antiport, the xCT activity result was “without xCT activity”.

In the case of `Nc1ccc(/C=C/c2ccccc2)cc1C(=O)O` [DC12, (E)-2-amino-5-styrylbenzoic acid], the activity at 250 µM in the data set with A172 glioma cells turned out to be 107%; in the data set on U87, 104%; with MCF7, 116%; with A375 it was 116%. In addition, the activity at 500 µM in the data set on A172 glioma cells came out at 101%; with U87, 117%; with MCF7, 96.5%; with A375 it was 95.6%.

Regarding `O=C(O)c1cc(/C=C/c2cccc(-c3ccccc3)c2)ccc1O` [DC18, (E)-5-(2-([1,1′-biphenyl]-3-yl)vinyl)-2-hydroxybenzoic acid], the activity at 250 µM came out at 74% in the data set on A172 glioma cells, 66.5% in the data set on U87, 54.6% in the data set on MCF7 and 53.7% in the data set with A375. Further, the activity at 500 µM in the data set on A172 glioma cells was 3.7%; with U87 it was 4.6%; with MCF7, 4.8%; in the data set with A375, 3.4%.
